Assay results published in the NIST ThermoML archive (doi:10.1021/je300784x).
Numbers after ± are expanded uncertainties.

Conditions: Liquid, Twin ebulliometer

CCOc1ccccc1O [2-ethoxyphenol]
vapor or sublimation pressure (380.22 K): 2.827 ± 0.015 kPa | vapor or sublimation pressure (383.28 K): 3.25 ± 0.015 kPa | vapor or sublimation pressure (386.29 K): 3.72 ± 0.015 kPa | vapor or sublimation pressure (391.94 K): 4.757 ± 0.015 kPa | vapor or sublimation pressure (397.4 K): 5.986 ± 0.015 kPa | vapor or sublimation pressure (402.92 K): 7.506 ± 0.016 kPa | vapor or sublimation pressure (408.63 K): 9.39 ± 0.016 kPa | vapor or sublimation pressure (414.5 K): 11.73 ± 0.016 kPa | vapor or sublimation pressure (418.79 K): 13.71 ± 0.016 kPa | vapor or sublimation pressure (423.31 K): 16.11 ± 0.016 kPa | vapor or sublimation pressure (428.48 K): 19.24 ± 0.017 kPa | vapor or sublimation pressure (436.26 K): 24.89 ± 0.018 kPa | vapor or sublimation pressure (445.61 K): 33.38 ± 0.019 kPa | vapor or sublimation pressure (457.01 K): 46.82 ± 0.023 kPa | vapor or sublimation pressure (486.03 K): 100.76 ± 0.025 kPa
